Reference: patent US11739098B2 (BRISTOL-MYERS SQUIBB COMPANY, priority 2017, dated 2023)

Experiments:
Type in all cases: cell-based
[1] = target: T1, human TLR8 (Homo sapiens, UniProt Q9NR97); assay: TLR8 inhibition reporter assay (HEK-Blue cells, SEAP reporter, R848 stimulation); settings: HEK-Blue cells overexpressing human TLR8, SEAP reporter, R848 15.9 μM
T1 construct: host or cells: HEK-Blue cells (HEK293-derived reporter line)
T1 sequence (Q9NR97 27-1041): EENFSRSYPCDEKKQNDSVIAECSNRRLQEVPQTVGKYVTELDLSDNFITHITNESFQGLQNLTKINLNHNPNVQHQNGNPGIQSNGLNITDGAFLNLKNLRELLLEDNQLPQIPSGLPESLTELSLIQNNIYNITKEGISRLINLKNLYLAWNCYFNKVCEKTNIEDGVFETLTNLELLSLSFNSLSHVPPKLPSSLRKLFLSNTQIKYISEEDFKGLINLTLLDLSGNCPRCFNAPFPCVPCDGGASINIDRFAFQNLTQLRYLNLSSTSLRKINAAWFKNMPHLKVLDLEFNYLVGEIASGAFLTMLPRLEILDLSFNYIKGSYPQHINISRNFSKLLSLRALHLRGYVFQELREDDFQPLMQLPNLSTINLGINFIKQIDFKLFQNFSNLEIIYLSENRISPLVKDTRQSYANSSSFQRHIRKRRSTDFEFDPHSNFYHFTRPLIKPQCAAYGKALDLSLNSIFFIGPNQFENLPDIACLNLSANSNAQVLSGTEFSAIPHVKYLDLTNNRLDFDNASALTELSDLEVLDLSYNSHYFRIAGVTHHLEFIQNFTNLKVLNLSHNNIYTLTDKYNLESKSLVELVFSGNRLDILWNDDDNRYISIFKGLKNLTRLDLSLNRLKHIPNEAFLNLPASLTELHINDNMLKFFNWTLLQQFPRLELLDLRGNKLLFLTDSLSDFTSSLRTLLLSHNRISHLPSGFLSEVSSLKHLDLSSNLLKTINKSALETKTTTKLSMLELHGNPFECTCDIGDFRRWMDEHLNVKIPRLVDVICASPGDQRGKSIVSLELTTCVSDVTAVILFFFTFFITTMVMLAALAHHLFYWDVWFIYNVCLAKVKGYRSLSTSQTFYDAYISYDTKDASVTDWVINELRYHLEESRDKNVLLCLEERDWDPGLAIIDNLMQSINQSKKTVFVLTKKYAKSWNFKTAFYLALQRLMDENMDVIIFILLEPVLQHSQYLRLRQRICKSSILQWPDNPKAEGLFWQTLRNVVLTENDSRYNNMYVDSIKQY
Method in brief: (§1)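 After 22 h at 37 °C, SEAP secretion was measured from human TLR7-, TLR8- or TLR9-expressing HEK-Blue reporter cells given compound (0.05 nM–50 μM) 30 min before agonist: 7.5 μM gardiquimod, 15.9 μM R848 or 5 nM ODN2006 respectively. Percent inhibition referenced to agonist-plus-DMSO and known-inhibitor wells.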

[2] = target: T2, human TLR9 (Homo sapiens, UniProt Q9NR96); assay: TLR9 inhibition reporter assay (HEK-Blue cells, SEAP reporter, ODN2006 stimulation); settings: HEK-Blue cells overexpressing human TLR9, SEAP reporter, ODN2006 5 nM
T2 construct: host or cells: HEK-Blue cells (HEK293-derived reporter line)
T2 sequence (Q9NR96 26-1032): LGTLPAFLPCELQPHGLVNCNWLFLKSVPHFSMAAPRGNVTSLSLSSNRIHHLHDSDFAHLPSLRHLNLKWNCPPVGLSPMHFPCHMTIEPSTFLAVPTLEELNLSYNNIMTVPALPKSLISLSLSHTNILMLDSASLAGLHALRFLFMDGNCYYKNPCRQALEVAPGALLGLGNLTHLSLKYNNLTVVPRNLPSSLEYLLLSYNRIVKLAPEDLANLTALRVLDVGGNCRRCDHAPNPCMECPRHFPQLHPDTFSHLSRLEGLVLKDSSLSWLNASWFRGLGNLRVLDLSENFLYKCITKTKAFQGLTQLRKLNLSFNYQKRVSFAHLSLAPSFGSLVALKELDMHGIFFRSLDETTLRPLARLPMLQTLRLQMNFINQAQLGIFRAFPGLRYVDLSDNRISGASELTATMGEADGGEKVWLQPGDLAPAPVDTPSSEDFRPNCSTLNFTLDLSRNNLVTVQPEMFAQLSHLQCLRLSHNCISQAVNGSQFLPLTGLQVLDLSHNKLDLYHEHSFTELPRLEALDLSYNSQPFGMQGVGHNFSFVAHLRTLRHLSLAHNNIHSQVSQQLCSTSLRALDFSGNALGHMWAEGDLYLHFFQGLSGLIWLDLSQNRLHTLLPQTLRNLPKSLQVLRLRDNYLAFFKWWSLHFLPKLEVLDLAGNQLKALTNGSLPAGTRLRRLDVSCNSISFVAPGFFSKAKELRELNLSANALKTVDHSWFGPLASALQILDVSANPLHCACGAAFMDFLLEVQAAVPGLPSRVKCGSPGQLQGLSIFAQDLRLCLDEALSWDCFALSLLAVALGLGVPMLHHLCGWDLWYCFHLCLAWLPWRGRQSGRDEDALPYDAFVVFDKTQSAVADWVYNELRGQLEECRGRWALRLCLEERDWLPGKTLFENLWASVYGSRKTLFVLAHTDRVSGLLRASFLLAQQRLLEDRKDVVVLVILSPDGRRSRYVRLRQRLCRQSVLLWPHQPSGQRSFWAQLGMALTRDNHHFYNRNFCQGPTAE
Method in brief: as §1

[3] = target: T3, human TLR7 (Homo sapiens, UniProt Q9NYK1); assay: TLR7 inhibition reporter assay (HEK-Blue cells, SEAP reporter, gardiquimod stimulation); settings: HEK-Blue cells overexpressing human TLR7, SEAP reporter, gardiquimod 7.5 μM
T3 construct: host or cells: HEK-Blue cells (HEK293-derived reporter line)
T3 sequence (Q9NYK1 27-1049): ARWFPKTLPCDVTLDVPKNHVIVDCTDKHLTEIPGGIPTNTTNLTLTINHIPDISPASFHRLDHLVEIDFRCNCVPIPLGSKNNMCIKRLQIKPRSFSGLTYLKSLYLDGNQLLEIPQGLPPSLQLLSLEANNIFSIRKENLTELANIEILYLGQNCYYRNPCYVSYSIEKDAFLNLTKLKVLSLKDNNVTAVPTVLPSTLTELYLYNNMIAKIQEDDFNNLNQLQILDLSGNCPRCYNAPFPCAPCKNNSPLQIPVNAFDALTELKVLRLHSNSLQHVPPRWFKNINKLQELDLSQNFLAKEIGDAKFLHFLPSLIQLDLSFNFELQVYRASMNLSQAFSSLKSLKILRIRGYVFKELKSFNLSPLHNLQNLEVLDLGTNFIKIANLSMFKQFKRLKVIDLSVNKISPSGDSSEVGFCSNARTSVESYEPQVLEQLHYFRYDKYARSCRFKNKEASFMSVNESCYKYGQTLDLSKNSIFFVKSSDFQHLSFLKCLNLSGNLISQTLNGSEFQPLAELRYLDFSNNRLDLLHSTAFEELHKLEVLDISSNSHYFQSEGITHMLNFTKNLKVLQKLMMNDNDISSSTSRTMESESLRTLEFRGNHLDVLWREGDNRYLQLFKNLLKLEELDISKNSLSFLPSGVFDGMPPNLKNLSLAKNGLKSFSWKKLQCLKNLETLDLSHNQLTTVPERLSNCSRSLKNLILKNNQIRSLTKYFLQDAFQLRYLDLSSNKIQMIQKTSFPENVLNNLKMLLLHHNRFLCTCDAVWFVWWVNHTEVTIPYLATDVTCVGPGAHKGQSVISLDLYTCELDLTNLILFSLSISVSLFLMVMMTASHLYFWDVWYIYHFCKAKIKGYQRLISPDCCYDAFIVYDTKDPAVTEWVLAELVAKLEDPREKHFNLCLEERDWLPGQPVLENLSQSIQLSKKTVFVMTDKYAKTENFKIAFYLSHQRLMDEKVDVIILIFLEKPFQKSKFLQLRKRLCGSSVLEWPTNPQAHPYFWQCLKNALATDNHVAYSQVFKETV
Method in brief: as §1

CC(C)c1c(-c2cc(CO)c3nccn3c2)[nH]c2ccc(C3CCN(C(=O)CN(C)C)CC3)cc12 [Example 492, 2-(dimethylamino)-1-(4-(2-(8-(hydroxymethyl)imidazo[1,2-a]pyridin-6-yl)-3-isopropyl-1H-indol-5-yl)piperidin-1-yl)ethan-1-one]
IC50 [1]: < 100 nM
IC50 [2]: 100 to 1000 nM
IC50 [3]: < 100 nM

Cc1cc2ncccc2cc1-c1[nH]c2ccc(C3CCNCC3)cc2c1C(C)C [Example 140, 6-(3-isopropyl-5-(piperidin-4-yl)-1H-indol-2-yl)-7-methylquinoline]
IC50 [1]: 100 to 1000 nM
IC50 [2]: 1000 to 50000 nM
IC50 [3]: < 100 nM

Cc1cc(-c2[nH]c3ccc(C4CCN(Cc5cnn[nH]5)CC4)cc3c2C(C)C)cn2nnnc12 [Example 883, 6-(5-(1-((1H-1,2,3-triazol-5-yl)methyl)piperidin-4-yl)-3-isopropyl-1H-indol-2-yl)-8-methyltetrazolo[1,5-a]pyridine]
IC50 [1]: < 100 nM
IC50 [2]: 1000 to 50000 nM
IC50 [3]: < 100 nM

C[C@@H](O)CC(=O)N1CCC(c2ccc3[nH]c(-c4cc(F)c5nccn5c4)c(CC(F)F)c3c2)CC1 [Example 603, (R)-1-(4-(3-(2,2-difluoroethyl)-2-(8-fluoroimidazo[1,2-a]pyridin-6-yl)-1H-indol-5-yl)piperidin-1-yl)-3-hydroxybutan-1-one]
IC50 [1]: > 3130 nM
IC50 [2]: > 50000 nM
IC50 [3]: 100 to 1000 nM

Cc1cc(-c2[nH]c3ccc(C4CCN(CC(C)C)CC4)cc3c2C(C)C)cc2[nH]cnc12 [Example 955, 6-(5-(1-isobutylpiperidin-4-yl)-3-isopropyl-1H-indol-2-yl)-4-methyl-1H-benzo[d]imidazole]
IC50 [1]: < 100 nM
IC50 [2]: 100 to 1000 nM
IC50 [3]: < 100 nM

CC(C)c1c(-c2ccc3nc(N)cn3n2)[nH]c2ccc(C3CCNCC3)cc12 [Example 24, 6-(3-isopropyl-5-(piperidin-4-yl)-1H-indol-2-yl)imidazo[1,2-b]pyridazin-2-amine]
IC50 [1]: 1000 to 50000 nM
IC50 [2]: 1000 to 50000 nM
IC50 [3]: 1000 to 50000 nM

Cc1c(-c2ccnc3[nH]nc(C)c23)[nH]c2ccc(C3CCNCC3)cc12 [Example 218, 3-methyl-4-(3-methyl-5-(piperidin-4-yl)-1H-indol-2-yl)-1H-pyrazolo[3,4-b]pyridine]
IC50 [1]: < 100 nM
IC50 [2]: 100 to 1000 nM
IC50 [3]: < 100 nM

Cc1nnn2ccc(-c3[nH]c4ccc(C5CCN(CCS(C)(=O)=O)CC5)cc4c3C(C)C)cc12 [Example 793, 5-(3-isopropyl-5-(1-(2-(methylsulfonyl)ethyl)piperidin-4-yl)-1H-indol-2-yl)-3-methyl-[1,2,3]triazolo[1,5-a]pyridine]
IC50 [1]: < 100 nM
IC50 [2]: 1000 to 50000 nM
IC50 [3]: < 100 nM

CNC(=O)CN1CCC(c2ccc3[nH]c(-c4cc(C)c5oc(=O)[nH]c5c4)c(C(C)C)c3c2)CC1 [Example 337, 2-(4-(3-isopropyl-2-(7-methyl-2-oxo-2,3-dihydrobenzo[d]oxazol-5-yl)-1H-indol-5-yl)piperidin-1-yl)-N-methylacetamide]
IC50 [1]: 100 to 1000 nM
IC50 [2]: 1000 to 50000 nM
IC50 [3]: 100 to 1000 nM

CNCCN1CCC(c2ccc3[nH]c(-c4ccc5c(c4)OCCN5C)c(C)c3c2)CC1 [Example 673, N-methyl-2-(4-(3-methyl-2-(4-methyl-3,4-dihydro-2H-benzo[b][1,4]oxazin-7-yl)-1H-indol-5-yl)piperidin-1-yl)ethan-1-amine]
IC50 [1]: > 3130 nM
IC50 [2]: 1000 to 50000 nM
IC50 [3]: > 50000 nM

CNC(=O)CN1CCC(c2ccc3[nH]c(-c4ccc(C)n5ncnc45)c(C(C)C)c3c2)CC1 [Example 386, 2-(4-(3-isopropyl-2-(5-methyl-[1,2,4]triazolo[1,5-a]pyridin-8-yl)-1H-indol-5-yl)piperidin-1-yl)-N-methylacetamide]
IC50 [1]: 100 to 1000 nM
IC50 [2]: 1000 to 50000 nM
IC50 [3]: < 100 nM

CNC(=O)CN1CCC(c2ccc3[nH]c(-c4cc(C)c5nc(C(=O)N(C)CCO)cn5c4)c(C(C)C)c3c2)CC1 [Example 345, N-(2-hydroxyethyl)-6-(3-isopropyl-5-(1-(2-(methylamino)-2-oxoethyl)piperidin-4-yl)-1H-indol-2-yl)-N,8-dimethylimidazo[1,2-a]pyridine-2-carboxamide]
IC50 [1]: 100 to 1000 nM
IC50 [2]: 1000 to 50000 nM
IC50 [3]: < 100 nM

COCCN1CCC(c2ccc3[nH]c(-c4cc(C)n5ncnc5c4)c(C(C)C)c3c2)CC1 [Example 779, 7-(3-isopropyl-5-(1-(2-methoxyethyl)piperidin-4-yl)-1H-indol-2-yl)-5-methyl-[1,2,4]triazolo[1,5-a]pyridine]
IC50 [1]: < 100 nM
IC50 [2]: 1000 to 50000 nM
IC50 [3]: < 100 nM

CC(C)c1c(-c2ccc3ncc(C#N)n3c2)[nH]c2ccc(C3CCNCC3)cc12 [Example 119, 6-(3-isopropyl-5-(piperidin-4-yl)-1H-indol-2-yl)imidazo[1,2-a]pyridine-3-carbonitrile]
IC50 [1]: 100 to 1000 nM
IC50 [2]: 1000 to 50000 nM
IC50 [3]: 100 to 1000 nM
